According to ChEMBL document CHEMBL1147252, “New bromotyrosine derivatives from an association of two sponges, Jaspis wondoensis and Poecillastra wondoensis” (2003):
≈ marks a conversion by molar mass, not a printed value.

Legend:
Assay type in all cases: functional
Staphylococcus aureus [1] = assay: Antibacterial activity against methicillin-resistant Staphylococcus aureus 003 after 18 hrs
Staphylococcus aureus [2] = assay: Antibacterial activity against methicillin-resistant Staphylococcus aureus Y-80-12-1109 after 18 hrs
Staphylococcus aureus [3] = assay: Antibacterial activity against methicillin-resistant Staphylococcus aureus KIST1 after 18 hrs
Staphylococcus aureus [4] = assay: Antibacterial activity against methicillin-resistant Staphylococcus aureus KIST2 after 18 hrs
Staphylococcus aureus [5] = assay: Antibacterial activity against methicillin-resistant Staphylococcus aureus KIST3 after 18 hrs
Staphylococcus aureus [6] = assay: Antibacterial activity against methicillin-resistant Staphylococcus aureus KIST4 after 18 hrs
Staphylococcus aureus [7] = assay: Antibacterial activity against methicillin-resistant Staphylococcus aureus 004 after 18 hrs
Staphylococcus aureus [8] = assay: Antibacterial activity against methicillin-resistant Staphylococcus aureus Y-80-12-1999 after 18 hrs
Staphylococcus aureus [9] = assay: Antibacterial activity against methicillin-resistant Staphylococcus aureus Y-80-12-844 after 18 hrs
[10] = test system: Staphylococcus epidermidis; assay: Antibacterial activity against ofloxacin-resistant Staphylococcus epidermidis 178 after 18 hrs
[11] = test system: Staphylococcus epidermidis; assay: Antibacterial activity against ofloxacin-resistant Staphylococcus epidermidis 291 after 18 hrs
A549 = assay: Cytotoxicity against human A549 cells; conditions: read-out: ED50 (the source's name)
SK-OV-3 = assay: Cytotoxicity against human SKOV3 cells; conditions: read-out: ED50 (the source's name)
SK-MEL-2 = assay: Cytotoxicity against human SK-MEL-2 cells; conditions: read-out: ED50 (the source's name)
XF498 = assay: Cytotoxicity against human XF498 cells; conditions: read-out: ED50 (the source's name)
HCT-15 = assay: Cytotoxicity against human HCT15 cells; conditions: read-out: ED50 (the source's name)

## O=C(NCCSSSCCNC(=O)/C(Cc1ccc(O)c(Br)c1)=N/O)/C(Cc1ccc(O)c(Br)c1)=N/O
Staphylococcus aureus [1]
  MIC: 3.1 µg/mL (≈ 4.45 µM)
Staphylococcus aureus [2]
  MIC: 6.3 µg/mL (≈ 9.05 µM)
Staphylococcus aureus [3]
  MIC: 3.1 µg/mL (≈ 4.45 µM)
Staphylococcus aureus [4]
  MIC: 3.1 µg/mL (≈ 4.45 µM)
Staphylococcus aureus [5]
  MIC: 6.3 µg/mL (≈ 9.05 µM)
Staphylococcus aureus [6]
  MIC: 3.1 µg/mL (≈ 4.45 µM)
Staphylococcus aureus [7]
  MIC: 3.1 µg/mL (≈ 4.45 µM)
Staphylococcus aureus [8]
  MIC: 6.3 µg/mL (≈ 9.05 µM)
Staphylococcus aureus [9]
  MIC: 25 µg/mL (≈ 35.9 µM)
[10]
  MIC: 0.8 µg/mL (≈ 1.15 µM)
[11]
  MIC: 0.8 µg/mL (≈ 1.15 µM)

## O=C(NCCSSCCNC(=O)/C(Cc1cc(Br)c(O)c(Br)c1)=N/O)/C(Cc1ccc(O)c(Br)c1)=N/O
A549
  EC50: 1.34 µg/mL (≈ 1.8 µM)
SK-OV-3
  EC50: 1.38 µg/mL (≈ 1.86 µM)
SK-MEL-2
  EC50: 0.9 µg/mL (≈ 1.21 µM)
XF498
  EC50: 0.92 µg/mL (≈ 1.24 µM)
HCT-15
  EC50: 3.31 µg/mL (≈ 4.45 µM)
Staphylococcus aureus [1]
  MIC: 12.5 µg/mL (≈ 16.8 µM)
Staphylococcus aureus [2]
  MIC: 12.5 µg/mL (≈ 16.8 µM)
Staphylococcus aureus [3]
  MIC: 12.5 µg/mL (≈ 16.8 µM)
Staphylococcus aureus [4]
  MIC: 12.5 µg/mL (≈ 16.8 µM)
Staphylococcus aureus [5]
  MIC: 12.5 µg/mL (≈ 16.8 µM)
Staphylococcus aureus [6]
  MIC: 12.5 µg/mL (≈ 16.8 µM)
Staphylococcus aureus [7]
  MIC: 12.5 µg/mL (≈ 16.8 µM)
Staphylococcus aureus [8]
  MIC: 12.5 µg/mL (≈ 16.8 µM)
Staphylococcus aureus [9]
  MIC: 25 µg/mL (≈ 33.6 µM)
[10]
  MIC: 3.2 µg/mL (≈ 4.31 µM)
[11]
  MIC: 3.2 µg/mL (≈ 4.31 µM)

## O=C(NCCSSCCNC(=O)/C(Cc1cc(Br)c(O)c(-c2cc(C/C(=N\O)C(=O)NCCSSCCNC(=O)/C(Cc3ccc(O)c(Br)c3)=N/O)cc(Br)c2O)c1)=N/O)/C(Cc1ccc(O)c(Br)c1)=N/O [BISAPRASIN]
A549
  EC50: 3.4 µg/mL (≈ 2.56 µM)
SK-OV-3
  EC50: 2.78 µg/mL (≈ 2.1 µM)
SK-MEL-2
  EC50: 2.94 µg/mL (≈ 2.22 µM)
XF498
  EC50: 2.44 µg/mL (≈ 1.84 µM)
HCT-15
  EC50: 6 µg/mL (≈ 4.52 µM)
Staphylococcus aureus [1]
  MIC: 12.5 µg/mL (≈ 9.42 µM)
Staphylococcus aureus [2]
  MIC: 50 µg/mL (≈ 37.7 µM)
Staphylococcus aureus [3]
  MIC: 12.5 µg/mL (≈ 9.42 µM)
Staphylococcus aureus [4]
  MIC: 6.3 µg/mL (≈ 4.75 µM)
Staphylococcus aureus [5]
  MIC: 6.3 µg/mL (≈ 4.75 µM)
Staphylococcus aureus [6]
  MIC: 6.3 µg/mL (≈ 4.75 µM)
Staphylococcus aureus [7]
  MIC: 6.3 µg/mL (≈ 4.75 µM)
Staphylococcus aureus [8]
  MIC: 50 µg/mL (≈ 37.7 µM)
Staphylococcus aureus [9]
  MIC: 25 µg/mL (≈ 18.8 µM)
[10]
  MIC: 6.3 µg/mL (≈ 4.75 µM)
[11]
  MIC: 12.5 µg/mL (≈ 9.42 µM)

## O=C(NCCSSCCNC(=O)/C(Cc1ccc(Oc2cc(C/C(=N\O)C(=O)NCCSSCCNC(=O)/C(Cc3ccc(O)c(Br)c3)=N/O)cc(Br)c2O)c(Br)c1)=N/O)/C(Cc1ccc(O)c(Br)c1)=N/O [BISPSAMMAPLIN A]
A549
  EC50: 1.53 µg/mL (≈ 1.15 µM)
SK-OV-3
  EC50: 1.52 µg/mL (≈ 1.15 µM)
SK-MEL-2
  EC50: 1.02 µg/mL (≈ 0.769 µM)
XF498
  EC50: 1.1 µg/mL (≈ 0.829 µM)
HCT-15
  EC50: 3.35 µg/mL (≈ 2.52 µM)
Staphylococcus aureus [1]
  MIC: > 50 µg/mL
Staphylococcus aureus [2]
  MIC: > 50 µg/mL
Staphylococcus aureus [3]
  MIC: > 50 µg/mL
Staphylococcus aureus [4]
  MIC: > 50 µg/mL
Staphylococcus aureus [5]
  MIC: > 50 µg/mL
Staphylococcus aureus [6]
  MIC: > 50 µg/mL
Staphylococcus aureus [7]
  MIC: > 50 µg/mL
Staphylococcus aureus [8]
  MIC: > 50 µg/mL
Staphylococcus aureus [9]
  MIC: > 50 µg/mL
[10]
  MIC: > 50 µg/mL
[11]
  MIC: > 50 µg/mL

## COc1cccc2c1C(=O)c1c(O)c3c(c(O)c1C2=O)C[C@@](O)(C(=O)CO)C[C@@H]3O[C@H]1C[C@H](N)[C@H](O)[C@H](C)O1 [DOXORUBICIN]
A549
  EC50: 0.04 µg/mL (≈ 0.0736 µM)
SK-OV-3
  EC50: 0.15 µg/mL (≈ 0.276 µM)
SK-MEL-2
  EC50: 0.03 µg/mL (≈ 0.0552 µM)
XF498
  EC50: 0.1 µg/mL (≈ 0.184 µM)
HCT-15
  EC50: 0.09 µg/mL (≈ 0.166 µM)

## C[C@@H](O)[C@H]1C(=O)N2C(C(=O)O)=C(S[C@@H]3CN[C@H](C(=O)N(C)C)C3)[C@H](C)[C@H]12 [MEROPENEM]
Staphylococcus aureus [1]
  MIC: 3.1 µg/mL (≈ 8.08 µM)
Staphylococcus aureus [2]
  MIC: 50 µg/mL (≈ 130 µM)
Staphylococcus aureus [3]
  MIC: 25 µg/mL (≈ 65.2 µM)
Staphylococcus aureus [4]
  MIC: 3.1 µg/mL (≈ 8.08 µM)
Staphylococcus aureus [5]
  MIC: 50 µg/mL (≈ 130 µM)
Staphylococcus aureus [6]
  MIC: 50 µg/mL (≈ 130 µM)
Staphylococcus aureus [7]
  MIC: 3.1 µg/mL (≈ 8.08 µM)
Staphylococcus aureus [8]
  MIC: 50 µg/mL (≈ 130 µM)
Staphylococcus aureus [9]
  MIC: 50 µg/mL (≈ 130 µM)
[10]
  MIC: 0.8 µg/mL (≈ 2.09 µM)
[11]
  MIC: 1.6 µg/mL (≈ 4.17 µM)

## O=C(NCCSSCCNC(=O)/C(Cc1ccc(O)c(Br)c1)=N/O)/C(Cc1ccc(O)c(Br)c1)=N/O [PSAMMAPLIN A]
A549
  EC50: 0.57 µg/mL (≈ 0.858 µM)
SK-OV-3
  EC50: 0.14 µg/mL (≈ 0.211 µM)
SK-MEL-2
  EC50: 0.13 µg/mL (≈ 0.196 µM)
XF498
  EC50: 0.57 µg/mL (≈ 0.858 µM)
HCT-15
  EC50: 0.68 µg/mL (≈ 1.02 µM)

## COC(=O)NCCSSCCNC(=O)/C(Cc1ccc(O)c(Br)c1)=N/O [PSAMMAPLIN D]
A549
  EC50: 0.8 µg/mL (≈ 1.72 µM)
SK-OV-3
  EC50: 0.17 µg/mL (≈ 0.365 µM)
SK-MEL-2
  EC50: 0.2 µg/mL (≈ 0.429 µM)
XF498
  EC50: 0.6 µg/mL (≈ 1.29 µM)
HCT-15
  EC50: 1.23 µg/mL (≈ 2.64 µM)
Staphylococcus aureus [1]
  MIC: > 25 µg/mL
Staphylococcus aureus [2]
  MIC: > 25 µg/mL
Staphylococcus aureus [3]
  MIC: > 25 µg/mL
Staphylococcus aureus [4]
  MIC: > 25 µg/mL
Staphylococcus aureus [5]
  MIC: > 25 µg/mL
Staphylococcus aureus [6]
  MIC: > 25 µg/mL
Staphylococcus aureus [7]
  MIC: > 25 µg/mL
Staphylococcus aureus [8]
  MIC: > 25 µg/mL
Staphylococcus aureus [9]
  MIC: > 25 µg/mL
[10]
  MIC: > 25 µg/mL
[11]
  MIC: > 25 µg/mL
